From patent US7674816B2, “Substituted melatonin derivatives, process for their preparation, and methods of use” (Abraxis BioScience, LLC, priority 2003, dated 2010)
Where two headings read alike, the source gives them in different places.

How the values were obtained:
[1] = system: GABAA Cl channel; assay: GABAA Cl channel, TBOB site competitive binding (3H-TBOB), single concentration; details: Conc. 1.0E−4 M, bovine hippocampus
Description: (§1) The binding profile of exemplary inventive compounds to neurotransmitter receptor sites is set forth below in Table 1. The characterization of the receptors, isolation of the membrane, and enzyme assay have been described in detail previously (see, e.g., Cole et al., Life Sci., 35, 1755 (1984), Lawrence et al., J. Neurochem., 45(3), 798 (1985), Sweetnam et al., Mol. Pharmacology, 29, 299 (1986), Zarkovsky et al., Neuropharmacology, 26 (7A), 737 (1987), Li et al., Eur. J. Pharmacology, 413, 63 (2001), and Markela et al., Mol. Pharmacology, 52, 380 (1997)).
(§2) The melatonin binding site on GABAA was defined using a series of competitive binding assays. Frozen bovine hippocampus was thawed and homogenized in 40 volumes of ice-cold 0.32 M sucrose. The suspension was centrifuged at 1000×g for 10 minutes at 4° C. The pellet was washed twice in assay buffer and reacted with radioactive ligand in presence or absence of melatonin at 10^−4 M final concentration. The amount of radioactivity remained on the Whatman filter following filtration of the reaction mix and two washes with assay buffer was determined using a liquid scintillation counter. Inhibition of radioactive ligand binding by melatonin represents the competitive binding of melatonin to the same site as the radioactive ligand. GABAA agonist site, GABAA α-1 site, GABAA α-5 site, GABAA α-6 site, and GABAA Cl channel were assayed using ^3H-GABA, ^3H-flunitrazepam, ^3H-RY80, ^3H-Ro 15-4513, and ^3H-TBOB.

[2] = system: GABAA α-6 site; assay: GABAA alpha 6 site competitive binding (3H-Ro 15-4513); details: Conc. 1.0E−4 M, bovine hippocampus
Description: as §1, §2

[3] = system: GABAA agonist site; assay: GABAA agonist site competitive binding (3H-GABA); details: bovine hippocampus
Description: as §1, §2

[4] = system: GABAA α-1 site; assay: GABAA alpha 1 site competitive binding (3H-flunitrazepam); details: Conc. 1.0E−4 M, bovine hippocampus
Description: as §1, §2

[5] = system: rats; details: cited from earlier work; for ED95 (95% CI, for loss of righting reflex): intravenous
[6] = system: GABAA α-6 site; assay: GABAA alpha 6 site competitive binding (3H-Ro 15-4513); details: Conc. 1.0E−3 M, bovine hippocampus
[7] = system: GABAA Cl channel; assay: GABAA Cl channel, TBOB site competitive binding (3H-TBOB), single concentration; details: Conc. 1.0E−3 M, bovine hippocampus
[8] = system: GABAA α-1 site; assay: GABAA alpha 1 site competitive binding (3H-flunitrazepam); details: Conc. 1.0E−3 M, bovine hippocampus
[9] = system: rats; assay: In vivo hypnotic activity: time to recovery of righting reflex after tail vein injection; details: 28 μmol/kg (5 mg/kg for propofol), in DMSO
Description: (§3) The suspension was centrifuged at 1000×g for 10 minutes at 4° C. The pellet was washed twice in assay buffer and reacted with radioactive ligand in presence or absence of […] at 10^−4 M final concentration. The amount of radioactivity remained on the Whatman filter following filtration of the reaction mix and two washes with assay buffer was determined using a liquid scintillation counter. Inhibition of radioactive ligand binding by melatonin represents the competitive binding of melatonin to the same site as the radioactive ligand. GABAA Cl channel were assayed using ^3H-TBOB. The binding was carried out in the presence of increasing concentration of melatonin and the KD determined graphically using the Hill plots. In vivo hypnotic activity was determined as follow. Drugs solubilized in DMSO were administered to rats by tail vein injection (N=5 rats per group). A dose level of 28 μmol/kg (5 mg/kg for propofol) was used to compensate for differences in molecular weight of the analogs. Anesthetic activity in vivo was determined as time to recovery of righting reflex following administration of the compounds.

[10] = molecular target: GABAA Cl channel; assay: GABAA Cl channel binding constant determination (3H-TBOB, increasing concentration, Hill plots); details: bovine hippocampus
Description: as §3

[11] = system: Dawley rats; assay: Response to tail clamping after single i.v. bolus; assay type: in vivo; details: single i.v. bolus 15 mg/kg, in 10% ethanol/16% Cremophor
Description: This example illustrates the tail clamping with melatonin analogs. Dawley rats (Harlan, Indianapolis, Ind., USA) were weighed and anaesthetized with isoflurane. In all rats, the right jugular vein was cannulated with a heparinized saline filled catheter. Studies were carried out 5-7 days after surgery.
Tail clamp was tested by application of a rubber-clad vascular clamp (22 cm DeBakey) across the proximal third of the tail. Purposeful movement of the hind limbs and/or the head was noted as a positive response.

## CC(C)c1cccc(C(C)C)c1O [2,6-Diisopropylphenol, reference compound]
[1]
  Specific binding, GABAA Ion Channels Cl−, TBOB site (inhibition of radioactive ligand binding): 117.52%
[2]
  Specific binding, GABAA Alpha 6 site (inhibition of radioactive ligand binding): −0.89%
[3]; Conc. 1.0E−4 M
  Specific binding, GABAA Agonist site (inhibition of radioactive ligand binding): 12.48%
[4]
  Specific binding, GABAA Alpha 1 site (inhibition of radioactive ligand binding): −14.31%
[5]; bolus injection of 10 mg/kg
  Effect of bolus injection on righting reflex: immediate loss of righting reflex
[5]
  ED95 (95% CI, for loss of righting reflex): 14.9 mg/kg

## COc1ccc2[nH]c(-c3cccc(C(F)(F)F)c3)c(CCNC(C)=O)c2c1 [2-(3-Trifluoromethylphenyl) melatonin, N-(2-(2-(3-trifluoromethylphenyl)-5-methoxy-1H-indol-3-yl)ethyl)acetamide]
[1]
  Specific binding, GABAA Ion Channels Cl−, TBOB site (inhibition of radioactive ligand binding): 79.60%
[2]
  Specific binding, GABAA Alpha 6 site (inhibition of radioactive ligand binding): 25.39%
[4]
  Specific binding, GABAA Alpha 1 site (inhibition of radioactive ligand binding): 15.61%

## COc1ccc2[nH]c(-c3ccc(F)cc3)c(CCNC(C)=O)c2c1 [2-(4-Fluorophenyl) melatonin, N-(2-(2-(4-fluorophenyl)-5-methoxy-1H-indol-3-yl)ethyl)acetamide]
[1]
  Specific binding, GABAA Ion Channels Cl−, TBOB site (inhibition of radioactive ligand binding): 110.10%
[2]
  Specific binding, GABAA Alpha 6 site (inhibition of radioactive ligand binding): 20.76%
[4]
  Specific binding, GABAA Alpha 1 site (inhibition of radioactive ligand binding): 28.80%

## COc1ccc2[nH]c(-c3ccc(C)cc3)c(CCNC(C)=O)c2c1 [2-(4-Methylphenyl) melatonin, N-(2-(5-methoxy-2-p-tolyl-1H-indol-3-yl)ethyl)acetamide]
[1]
  Specific binding, GABAA Ion Channels Cl−, TBOB site (inhibition of radioactive ligand binding): 101.46%
[2]
  Specific binding, GABAA Alpha 6 site (inhibition of radioactive ligand binding): 32.93%
[4]
  Specific binding, GABAA Alpha 1 site (inhibition of radioactive ligand binding): 10.28%

## COc1ccc2[nH]c(-c3ccc(C(F)(F)F)cc3)c(CCNC(C)=O)c2c1 [2-(4-Trifluoromethylphenyl) melatonin, N-(2-(2-(4-trifluoromethylphenyl)-5-methoxy-1H-indol-3-yl)ethyl)acetamide]
[1]
  Specific binding, GABAA Ion Channels Cl−, TBOB site (inhibition of radioactive ligand binding): 103.23%
[2]
  Specific binding, GABAA Alpha 6 site (inhibition of radioactive ligand binding): 25.87%
[4]
  Specific binding, GABAA Alpha 1 site (inhibition of radioactive ligand binding): 8.11%

## COc1ccc2[nH]c(Br)c(CCNC(C)=O)c2c1 [2-Bromomelatonin, N-(2-(2-bromo-5-methoxy-1H-indol-3-yl)ethyl)acetamide]
[6]
  Specific binding, GABAA Alpha 6 site (inhibition of radioactive ligand binding): −12.69%
[7]
  Specific binding, GABAA Ion Channels Cl−, TBOB site (inhibition of radioactive ligand binding): 51.87%
[8]
  Specific binding, GABAA Alpha 1 site (inhibition of radioactive ligand binding): 8.35%
[3]; Conc. 1.0E−3 M
  Specific binding, GABAA Agonist site (inhibition of radioactive ligand binding): −8.55%

## COc1ccc2[nH]c(-c3ccccc3)c(CCNC(C)=O)c2c1 [2-Phenylmelatonin, N-(2-(5-methoxy-2-phenyl-1H-indol-3-yl)ethyl)acetamide]
[1]
  Specific binding, GABAA Ion Channels Cl−, TBOB site (inhibition of radioactive ligand binding): 84.28%
[2]
  Specific binding, GABAA Alpha 6 site (inhibition of radioactive ligand binding): 12.48%
[3]; Conc. 1.0E−4 M
  Specific binding, GABAA Agonist site (inhibition of radioactive ligand binding): 0.33%
[4]
  Specific binding, GABAA Alpha 1 site (inhibition of radioactive ligand binding): 35.16%

## CC(=O)NCCc1c(Cc2ccccc2)[nH]c2ccccc12 [Luzindole, reference compound]
[1]
  Specific binding, GABAA Ion Channels Cl−, TBOB site (inhibition of radioactive ligand binding): 47.55%
[2]
  Specific binding, GABAA Alpha 6 site (inhibition of radioactive ligand binding): 4.93%
[3]; Conc. 1.0E−4 M
  Specific binding, GABAA Agonist site (inhibition of radioactive ligand binding): 5.84%
[4]
  Specific binding, GABAA Alpha 1 site (inhibition of radioactive ligand binding): 5.09%

## COc1ccc2[nH]cc(CCNC(C)=O)c2c1 [Melatonin, N-acetyl-5-methoxytryptamine]
[6]
  Specific binding, GABAA Alpha 6 site (inhibition of radioactive ligand binding): 17.50%
[7]
  Specific binding, GABAA Ion Channels Cl−, TBOB site (inhibition of radioactive ligand binding): 39.44%
[8]
  Specific binding, GABAA Alpha 1 site (inhibition of radioactive ligand binding): 39.80%
[3]; Conc. 1.0E−3 M
  Specific binding, GABAA Agonist site (inhibition of radioactive ligand binding): −3.11%
[5]; bolus injection of 312 mg/mL
  Effect of bolus injection on righting reflex: immediate loss of righting reflex

## CC(C)c1cccc(C(C)C)c1O [drawing 16, reference compound]
[9]
  Anesthesia Activity (Time to awakening, min): 20.8 min
[10]
  IC50: 4.86 µM

## COc1ccc2[nH]c(-c3ccccc3)c(CCNC(C)=O)c2c1 [drawing 18]
[10]
  IC50: 108 µM

## COc1ccc2[nH]c(-c3ccc(F)cc3)c(CCNC(C)=O)c2c1 [drawing 19]
[9]
  Anesthesia Activity (Time to awakening, min): 3.0 min
[10]
  IC50: 27.9 µM

## COc1ccc2[nH]c(-c3ccc(C(F)(F)F)cc3)c(CCNC(C)=O)c2c1 [drawing 20]
[9]
  Anesthesia Activity (Time to awakening, min): 20.8 min
[10]
  IC50: 13.1 µM

## COc1ccc2[nH]c(-c3ccc(C)cc3)c(CCNC(C)=O)c2c1 [drawing 21]
[9]
  Anesthesia Activity (Time to awakening, min): 4.8 min
[10]
  IC50: 33.9 µM

## COc1ccc2[nH]c(-c3cccc(C(F)(F)F)c3)c(CCNC(C)=O)c2c1 [drawing 22]
[9]
  Anesthesia Activity (Time to awakening, min): 3.8 min

## COc1ccc(-c2[nH]c3ccc(OC)cc3c2CCNC(C)=O)cc1 [drawing 23]
[9]
  Anesthesia Activity (Time to awakening, min): 3.5 min
[10]
  IC50: 19.9 µM

## COc1ccc2[nH]c(-c3ccc(C(C)(C)C)cc3)c(CCNC(C)=O)c2c1 [drawing 24]
[9]
  Anesthesia Activity (Time to awakening, min): 20.3 min

## COc1ccc2[nH]c(-c3ccccc3)c(CCNC(C)=O)c2c1 [drawing 25, reference compound]
[11]
  # lack of response rat/tested rat: 0/5
  Time of lack of response to the tail clamp, min: No effect

## COc1ccc2[nH]c(-c3ccc(F)cc3)c(CCNC(C)=O)c2c1 [drawing 26]
[11]
  # lack of response rat/tested rat: 5/5
  Time of lack of response to the tail clamp: 2 min

## COc1ccc2[nH]c(-c3ccc(C(F)(F)F)cc3)c(CCNC(C)=O)c2c1 [drawing 27]
[11]
  # lack of response rat/tested rat: 4/5
  Time of lack of response to the tail clamp: 15 min

## COc1ccc2[nH]c(-c3cccc(C(F)(F)F)c3)c(CCNC(C)=O)c2c1 [drawing 28]
[11]
  # lack of response rat/tested rat: 5/5
  Time of lack of response to the tail clamp: 5 min

## COc1ccc2[nH]c(-c3ccc(C(C)(C)C)cc3)c(CCNC(C)=O)c2c1 [drawing 29]
[11]
  # lack of response rat/tested rat: 5/5
  Time of lack of response to the tail clamp: 5 min

## CCCC(C)C1(CC)C(=O)NC(=S)NC1=O (centres unmarked) [thiopental]
[5]
  ED95 (95% CI, for loss of righting reflex): 8 mg/kg
